Source: patent US12528761B2, “Thyromimetics” (Autobahn Therapeutics, Inc., priority 2020, dated 2026)

Columns and labels:
TRβ = molecular target: T1, TRβ (Homo sapiens, UniProt P10828); experiment: TR reporter-gene assay (Gal4 DBD hybrid, luciferase), TRβ; format: cell-based; details: for EC50: HEK293-derived reporter cells, 24 hr treatment, read-out: TRβ EC50
T1 construct: expressed in transfected cells; host or cells: HEK293
T1 sequence (P10828 217-461 limits assumed): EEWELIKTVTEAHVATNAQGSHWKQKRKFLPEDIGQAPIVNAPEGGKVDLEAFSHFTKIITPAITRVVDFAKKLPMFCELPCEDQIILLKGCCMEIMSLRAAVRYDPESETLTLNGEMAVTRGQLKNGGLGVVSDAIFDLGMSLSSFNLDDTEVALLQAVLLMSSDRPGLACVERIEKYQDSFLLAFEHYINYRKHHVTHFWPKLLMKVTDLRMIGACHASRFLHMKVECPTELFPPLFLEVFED
Procedure: (§1) Compounds were tested for thyroid-hormone receptor activity using TR reporter-gene assays. Reporter cells used in the assays express a TR-receptor hybrid (either TRα or TRβ) in which the native N-terminal DNA binding domain (DBD) has been replaced with that of the yeast Gal4 DBD. The reporter gene, firefly luciferase, is functionally linked to the Gal4 upstream activation sequence (UAS). Both cell lines were derived from human embryonic kidney (HEK293).
(§2) Step 1: A suspension of reporter cells was prepared in cell recovery medium containing 10% charcoal-stripped FBS, and dispensed into assay plates. The plates were pre-incubated for 6 hours in a cell culture incubator (37° C./5% CO2/85% humidity).
(§3) These intermediate stocks were subsequently diluted directly into compound screening medium containing 10% charcoal-stripped FBS to generate “2×-concentration” treatment media (containing 0.2, 0.4 or 0.8% DMSO).
(§4) Step 3: At the end of the pre-incubation period, culture media were discarded from the assay plates, and all wells received 100 μl of compound screening medium. 100 μl of each of the previously prepared “2×-concentration” treatment media were dispensed into duplicate assay wells, thereby achieving the desired final treatment concentrations. The final concentration of DMSO in all assay wells was 0.1, 0.2 or 0.4%. Assay plates were incubated for 24 hr in a cell culture incubator (37° C./5% CO2/85% humidity).
(§5) Step 4: At the 24 h assay endpoint, treatment media were discarded and 100 µl/well of luciferase detection reagent was added. Relative luminometer units (RLUs) were quantified from each assay well.

TRα = molecular target: T2, TRα (Homo sapiens, UniProt P10827); experiment: TR reporter-gene assay (Gal4 DBD hybrid, luciferase), TRα; format: cell-based; details: HEK293-derived reporter cells, 24 hr treatment; read-out: TRα EC50
T2 construct: expressed in transfected cells; host or cells: HEK293
T2 sequence (P10827 1-410 isoform P10827-2): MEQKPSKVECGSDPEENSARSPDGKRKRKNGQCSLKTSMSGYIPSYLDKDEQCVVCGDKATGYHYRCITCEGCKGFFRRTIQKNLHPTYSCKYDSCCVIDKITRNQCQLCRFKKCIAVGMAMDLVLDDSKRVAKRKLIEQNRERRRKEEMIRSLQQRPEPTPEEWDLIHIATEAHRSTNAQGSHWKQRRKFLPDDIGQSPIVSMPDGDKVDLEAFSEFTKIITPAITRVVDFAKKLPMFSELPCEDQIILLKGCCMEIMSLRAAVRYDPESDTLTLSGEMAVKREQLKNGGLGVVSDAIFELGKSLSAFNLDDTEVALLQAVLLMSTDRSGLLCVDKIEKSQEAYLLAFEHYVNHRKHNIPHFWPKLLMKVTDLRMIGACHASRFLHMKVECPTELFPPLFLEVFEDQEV
Procedure: as §1, §2, §3, §4, §5

SMILES | EC50 (TRβ) | T3-SI (selectivity index, EC50 (TRα)/EC50 (TRβ)) (TRβ; class symbols) | EC50 (TRα) | T3-SI (selectivity index, EC50 (TRα)/EC50 (TRβ)) (TRβ; given as a number)
CC(Oc1cc(Cl)c(Cc2ccc(O)c(C(C)C)c2F)c(Cl)c1)C(=O)O (stereo not drawn) [Compound 58, 2-(3,5-dichloro-4-(2-fluoro-4-hydroxy-3-isopropylbenzyl)phenoxy)propanoic acid] | 10 to 100 nM | ++ (3× < T3-SI ≤ 30×) | 100 to 1000 nM | 
CC(C)c1c(O)ccc(Cc2c(Cl)cc(CCC(=O)O)cc2Cl)c1F [Compound 40, 3-(3,5-dichloro-4-(2-fluoro-4-hydroxy-3-isopropylbenzyl)phenyl)propanoic acid] | < 10 nM | ++ (3× < T3-SI ≤ 30×) | < 10 nM | 
O=C(O)CCc1cc(Cl)c(Cc2ccc(O)c(-c3cc(OC(F)F)ccc3F)c2F)c(Cl)c1 [Compound 44, 3-(3,5-dichloro-4-((5′-(difluoromethoxy)-2,2′-difluoro-6-hydroxy-[1,1′-biphenyl]-3-yl)methyl)phenyl)propanoic acid] | < 10 nM | ++ (3× < T3-SI ≤ 30×) | 10 to 100 nM | 
C/C(=C\c1cc(Cl)c(Cc2ccc(O)c(C(C)C)c2F)c(Cl)c1)C(=O)O [Compound 205, (E)-3-(3,5-dichloro-4-(2-fluoro-4-hydroxy-3-isopropylbenzyl)phenyl)-2-methylacrylic acid] | < 10 nM | ++ (3× < T3-SI ≤ 30×) | < 10 nM | 
CC(C)c1c(O)ccc(Cc2c(Cl)cc(CC(=O)O)c(F)c2Cl)c1F [Compound 69, 2-(3,5-dichloro-2-fluoro-4-(2-fluoro-4-hydroxy-3-isopropylbenzyl)phenyl)acetic acid] | < 10 nM | ++ (3× < T3-SI ≤ 30×) | 10 to 100 nM | 
CONC(=O)Cc1cc(Cl)c(Cc2ccc(O)c(C(C)C)c2F)c(Cl)c1 [Compound 104, 2-(3,5-dichloro-4-(2-fluoro-4-hydroxy-3-isopropylbenzyl)phenyl)-N-methoxyacetamide] | 100 to 1000 nM | +++ (T3-SI > 30×) | > 1000 nM | 
CC(C)c1c(O)ccc(Cc2c(Cl)cc(NC(=O)C(=O)O)cc2Cl)c1F [Compound 213, 2-((3,5-dichloro-4-(2-fluoro-4-hydroxy-3-isopropylbenzyl)phenyl)amino)-2-oxoacetic acid] | 100 to 1000 nM |  | 100 to 1000 nM | 7.15
C/C(=C\c1cc(C)c(Cc2ccc(O)c(C(C)C)c2F)c(Cl)c1)C(=O)O [Compound 248, (E)-3-(3-chloro-4-(2-fluoro-4-hydroxy-3-isopropylbenzyl)-5-methylphenyl)-2-methylacrylic acid] | 10 to 100 nM | + (T3-SI ≤ 3×) | 10 to 100 nM | 
Cc1cc(NC(=O)CC(=O)O)cc(C)c1Cc1ccc(O)c(C(C)c2ccc(F)cc2)c1 (stereo not drawn) [Compound 4, 3-((4-(3-(1-(4-fluorophenyl)ethyl)-4-hydroxybenzyl)-3,5-dimethylphenyl)amino)-3-oxopropanoic acid] | 10 to 100 nM | ++ (3× < T3-SI ≤ 30×) | 100 to 1000 nM | 
CC(c1ccc(F)cc1)c1c(O)ccc(Cc2c(Cl)cc(NC(=O)CC(=O)O)cc2Cl)c1F (stereo not drawn) [Compound 56, 3-((3,5-dichloro-4-(2-fluoro-3-(1-(4-fluorophenyl)ethyl)-4-hydroxybenzyl)phenyl)amino)-3-oxopropanoic acid] | 10 to 100 nM | ++ (3× < T3-SI ≤ 30×) | 100 to 1000 nM | 

Second part, the molecule after the results:

EC50 (TRβ) | T3-SI (selectivity index, EC50 (TRα)/EC50 (TRβ)) (TRβ; class symbols) | EC50 (TRα) | T3-SI (selectivity index, EC50 (TRα)/EC50 (TRβ)) (TRβ; given as a number) | SMILES
> 1000 nM | + (T3-SI ≤ 3×) | 100 to 1000 nM |  | CC(C)c1cc(Cc2c(Cl)cc(C=C(C(=O)O)C(=O)O)cc2Cl)ccc1O [Compound 108, 2-(3,5-dichloro-4-(4-hydroxy-3-isopropylbenzyl)benzylidene)malonic acid]
10 to 100 nM | ++ (3× < T3-SI ≤ 30×) | 10 to 100 nM |  | CC(C)c1cc(Cc2c(Cl)cc(NCCC(=O)O)cc2Cl)ccc1O [Compound 103, 3-((3,5-dichloro-4-(4-hydroxy-3-isopropylbenzyl)phenyl)amino)propanoic acid]
100 to 1000 nM | ++ (3× < T3-SI ≤ 30×) | 100 to 1000 nM |  | C/C(=C\c1cc(Cl)c(Cc2ccc(O)c(C(C)C)c2)c(Cl)c1)C(=O)O [Compound 102, (E)-3-(3,5-dichloro-4-(4-hydroxy-3-isopropylbenzyl)phenyl)-2-methylacrylic acid]
10 to 100 nM | ++ (3× < T3-SI ≤ 30×) | 10 to 100 nM |  | CC(C)c1cc(Cc2c(Cl)cc(NCC(=O)O)c(F)c2Cl)ccc1O [Compound 75, (3,5-dichloro-2-fluoro-4-(4-hydroxy-3-isopropylbenzyl)phenyl)glycine]
< 10 nM | ++ (3× < T3-SI ≤ 30×) | 10 to 100 nM |  | CC(C)c1c(O)ccc(Cc2c(Cl)cc(NCC(=O)O)cc2Cl)c1F [Compound 46, (3,5-dichloro-4-(2-fluoro-4-hydroxy-3-isopropylbenzyl)phenyl)glycine]
10 to 100 nM | + (T3-SI ≤ 3×) | 10 to 100 nM |  | Cc1cc(/C=C/C(=O)O)cc(Cl)c1Cc1ccc(O)c(C(C)C)c1F [Compound 250, (E)-3-(3-chloro-4-(2-fluoro-4-hydroxy-3-isopropylbenzyl)-5-methylphenyl)acrylic acid]
10 to 100 nM | ++ (3× < T3-SI ≤ 30×) | 10 to 100 nM |  | C/C(=C\c1cc(Cl)c(Cc2ccc(O)c(C(C)C)c2)c(C)c1F)C(=O)O [Compound 128, (E)-3-(5-chloro-2-fluoro-4-(4-hydroxy-3-isopropylbenzyl)-3-methylphenyl)-2-methylacrylic acid]
10 to 100 nM | ++ (3× < T3-SI ≤ 30×) | 10 to 100 nM |  | Cc1cc(NCC(=O)O)c(F)c(Cl)c1Cc1ccc(O)c(C(C)C)c1 [Compound 222, (3-chloro-2-fluoro-4-(4-hydroxy-3-isopropylbenzyl)-5-methylphenyl)glycine]
100 to 1000 nM | ++ (3× < T3-SI ≤ 30×) | 100 to 1000 nM |  | Cc1c(F)c(CNCC(=O)O)cc(Cl)c1Cc1ccc(O)c(C(C)C)c1 [Compound 221, (5-chloro-2-fluoro-4-(4-hydroxy-3-isopropylbenzyl)-3-methylbenzyl)glycine]
10 to 100 nM | ++ (3× < T3-SI ≤ 30×) | 10 to 100 nM |  | Cc1cc(NCC(=O)O)cc(Cl)c1Cc1ccc(O)c(C(C)C)c1F [Compound 247, (3-chloro-4-(2-fluoro-4-hydroxy-3-isopropylbenzyl)-5-methylphenyl)glycine]
100 to 1000 nM | + (T3-SI ≤ 3×) | 100 to 1000 nM |  | CC(C)c1cc(Cc2c(Cl)cc(OCCCC(=O)O)cc2Cl)ccc1O [Compound 24, 4-(3,5-dichloro-4-(4-hydroxy-3-isopropylbenzyl)phenoxy)butanoic acid]
> 1000 nM | ++ (3× < T3-SI ≤ 30×) | > 1000 nM |  | CC(C)c1cc(Cc2c(Cl)cc(C[S+]([O-])CC(=O)O)cc2Cl)ccc1O (stereo not drawn) [Compound 210, 2-((3,5-dichloro-4-(4-hydroxy-3-isopropylbenzyl)benzyl)sulfinyl)acetic acid]
10 to 100 nM | + (T3-SI ≤ 3×) | 10 to 100 nM |  | CC(C)c1cc(Cc2c(Cl)cc(CC(N)C(=O)O)cc2Cl)ccc1O (stereo not drawn) [Compound 143, 2-amino-3-(3,5-dichloro-4-(4-hydroxy-3-isopropylbenzyl)phenyl)propanoic acid]
> 1000 nM | + (T3-SI ≤ 3×) | 100 to 1000 nM |  | Cc1cc(CNCC(=O)O)cc(Cl)c1Cc1ccc(O)c(C(C)C)c1 [Compound 251, (3-chloro-4-(4-hydroxy-3-isopropylbenzyl)-5-methylbenzyl)glycine]
